Reference: patent publication EP2119770B1, “Production of alpha-oxyfunctionalized carbonyl compounds” (priority 2008, dated 2009)

How the values were obtained:
Gox1122 = biological target: T1, Gox1122 (Gluconobacter oxydans, UniProt Q5FRV6); details: using NADPH, pH range of 4-10
T1 sequence (Q5FRV6 1-463): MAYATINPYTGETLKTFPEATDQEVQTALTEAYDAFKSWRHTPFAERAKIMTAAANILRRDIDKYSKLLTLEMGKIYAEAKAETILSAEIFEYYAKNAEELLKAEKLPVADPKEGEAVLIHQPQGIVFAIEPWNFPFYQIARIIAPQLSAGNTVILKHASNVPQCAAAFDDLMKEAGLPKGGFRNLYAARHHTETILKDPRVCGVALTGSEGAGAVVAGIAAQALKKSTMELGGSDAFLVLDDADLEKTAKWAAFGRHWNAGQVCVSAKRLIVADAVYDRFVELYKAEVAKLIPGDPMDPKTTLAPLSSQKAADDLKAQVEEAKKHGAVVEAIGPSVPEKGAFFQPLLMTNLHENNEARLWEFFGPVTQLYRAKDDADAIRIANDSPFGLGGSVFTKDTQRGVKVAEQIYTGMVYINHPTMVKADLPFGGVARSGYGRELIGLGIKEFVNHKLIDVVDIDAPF
From the text: The enzyme is used in a combined enzymatic reaction between the NADPH-dependent reductases (see above) that form α-hydroxy carbonyl compounds.

Gox0313 = biological target: T2, Gox0313 (Gluconobacter oxydans, UniProt Q5FU50); experiment: Enzyme activity assay (rate of NAD(P)H decrease at 340 nm), Gox0313; assay type: biochemical; details: Tab. 6, Gox0313; substrate reduction, cofactor NADH; 10 mM substrate, pH 7.0, 30 °C
T2 sequence (Q5FU50 1-343): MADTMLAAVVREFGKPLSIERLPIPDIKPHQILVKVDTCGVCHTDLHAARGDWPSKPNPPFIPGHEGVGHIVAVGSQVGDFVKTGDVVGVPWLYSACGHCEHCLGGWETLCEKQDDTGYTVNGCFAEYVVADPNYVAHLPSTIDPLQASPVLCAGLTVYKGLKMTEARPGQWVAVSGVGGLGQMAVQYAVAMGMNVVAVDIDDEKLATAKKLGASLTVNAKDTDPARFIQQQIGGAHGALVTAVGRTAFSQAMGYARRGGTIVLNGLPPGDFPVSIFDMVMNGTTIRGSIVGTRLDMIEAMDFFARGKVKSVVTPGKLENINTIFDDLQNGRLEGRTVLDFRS
Method: (§1) Measurment of enzyme activity: NADPH-dependent alpha-ketocarbonyl reductases were assayed by a routine method used for NAD(P)-linked enzymes by recording the rate of decrease of NADPH at 340 nm (ε = 6.22 mM^-1 x cm^-1)) with substrates at 30 °C. The reaction mixture (1 ml) for reduction of alpha-ketocarbonyl substrates contained 10 mM substrate, 40 mM potassium phosphate buffer pH 7.0, 0.025 mM NAD(P)H , and the enzyme. Reactions were induced by addition of enzyme or substrate. One unit of enzyme activity was defined as the amount of enzyme catalyzing the conversion of 1 µmol of pyridine nucleotide per min at 30 °C.
(§2) NADPH-dependent α-ketocarbonyl reductases were assayed by a routine method used for NAD(P)-linked enzymes by recording the rate of decrease of NADPH at 340 nm (ε = 6.22 mM^-1.cm^-1) with substrates at 30 °C. The reaction mixture (1 ml) for reduction of alpha-ketocarbonyl substrates contained 10 mM substrate, 40 mM potassium phosphate buffer pH 7.0, 0.025 mM NADPH , and the enzyme. Reactions were induced by addition of enzyme or substrate. One unit of enzyme activity was defined as the amount of enzyme catalyzing the conversion of 1 µmol of pyridine nucleotide per min at 30 °C.
(§3) For each enzyme (Gox0313, Gox0502, Gox0644, Gox0646, Gox1615, Gox2107, and Gox2684 respectively), fresh enzyme preparations were used to validate the substrate spectrum and the kinetic activity. […] Purified NAD(P)-dependent oxidoreductases were assayed at 30 °C by a routine method used for NAD(P)-linked enzymes by recording the rate of decrease of NAD(P)H at 340 nm (ε = […]) with substrates capable of reduction reactions. The standard reaction mixture (1 ml) for the reduction reactions of substrates contained 10 mM substrate, 40 mM potassium phosphate buffer (K-phosphate buffer) pH 7.0, 0.05 mM NAD(P)H, and the enzyme unless otherwise noted. Reactions were induced by addition of enzyme or substrate. One unit of enzyme activity was defined as the amount of enzyme catalyzing the conversion of 1 µmol of pyridine nucleotide per min at 30 °C. Measurement of the protein content was performed by the method of Bradford in Anal. Biochem. 72:248-254 (1976). Table 3: Summary of enzymatic activities with α-diketones, α-ketoaldehydes and /or α-ketoesters

Gox1615 = biological target: T3, Gox1615 (Gluconobacter oxydans, UniProt Q5FQJ0); experiment: Enzyme activity assay (rate of NAD(P)H decrease at 340 nm), Gox1615; assay type: biochemical; details: Tab. 5, Gox1615; cofactor NADPH; 10 mM substrate, pH 7.0, 30 °C
T3 sequence (Q5FQJ0 1-332): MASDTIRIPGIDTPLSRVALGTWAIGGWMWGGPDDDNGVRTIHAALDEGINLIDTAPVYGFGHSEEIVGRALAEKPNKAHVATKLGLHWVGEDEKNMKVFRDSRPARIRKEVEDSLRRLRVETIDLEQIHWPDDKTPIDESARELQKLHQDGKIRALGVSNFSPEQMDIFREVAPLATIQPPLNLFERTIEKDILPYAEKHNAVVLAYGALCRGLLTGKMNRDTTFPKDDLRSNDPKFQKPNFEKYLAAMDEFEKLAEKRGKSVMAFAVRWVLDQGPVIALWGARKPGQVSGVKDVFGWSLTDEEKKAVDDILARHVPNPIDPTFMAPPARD
Method: as §1, §2, §3

Gox2107 [1] = biological target: T4, Gox2107 (Gluconobacter oxydans, UniProt Q5FP53); experiment: Enzyme activity assay (rate of NAD(P)H decrease at 340 nm), Gox2107; assay type: biochemical
Method: as §1, §2, §3

Gox2684 = biological target: T5, Gox2684 (Gluconobacter oxydans, UniProt Q5HXK5); experiment: Enzyme activity assay (rate of NAD(P)H decrease at 340 nm), Gox2684; assay type: biochemical; details: Tab. 8, GOX2684; cofactor NADPH; 10 mM substrate, pH 7.0, 30 °C
T5 sequence (Q5HXK5 1-357): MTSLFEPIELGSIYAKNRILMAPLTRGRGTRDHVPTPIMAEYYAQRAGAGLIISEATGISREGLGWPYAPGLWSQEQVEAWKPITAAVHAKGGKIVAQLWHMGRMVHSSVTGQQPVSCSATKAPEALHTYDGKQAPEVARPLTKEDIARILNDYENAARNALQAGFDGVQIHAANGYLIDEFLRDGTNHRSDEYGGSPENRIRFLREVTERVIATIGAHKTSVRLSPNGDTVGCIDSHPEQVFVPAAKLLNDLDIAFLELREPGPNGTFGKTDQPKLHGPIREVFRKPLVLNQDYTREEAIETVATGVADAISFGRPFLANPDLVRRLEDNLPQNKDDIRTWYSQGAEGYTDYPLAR
Method: as §1, §2, §3

Gox2107 [2] = biological target: T4, Gox2107; experiment: Enzyme kinetics (Lineweaver-Burk plots), Gox2107; assay type: biochemical; details: NADPH-dependent reduction
Method: Determination of pH and temperature optima and enzyme kinetics: The optimum pH for enzyme activities was determined by a modified method of Salusjärvi, T. et al., Appl. Microbiol. Biotechnol. 65:306-314 (2004) using the following buffer system (50 mM final concentration each): sodium acetate pH 4.5 - 6.5, potassium phosphate pH 6.5 - 8.0, Tris-HCl pH 8.0 - 10. Temperature optima for the biocatalysts were determined under standard reaction conditions at temperatures ranging from 20 - 80 °C. The Michaelis constant (Km) for the proteins was determined from purified enzyme by Lineweaver-Burk plots. Assays were performed at optimum pH for each enzyme and at 30 °C using the top substrate and a targeted substrate. The Km for each substrate was calculated using concentrations of 0.0025 to 10 mM, and the Km NAD(P)H and NAD(P) was calculated using concentrations of 0.01 to 0.5 mM
The Michaelis constants were determined from purified enzyme by Lineweaver-Burk plots. The Km and Vmax values for the substrates were calculated using concentrations of 0.025 to 10 mM, The optimal pH values and temperatures for enzyme activities are also shown in Tab. 11. Tab. 11: Summary of kinetic parameters

Gox0502 [3] = biological target: T6, Gox0502 (Gluconobacter oxydans, UniProt Q5FTL6); experiment: Enzyme kinetics (Lineweaver-Burk plots), Gox0502; details: NADPH-dependent reduction
T6 sequence (Q5FTL6 1-361): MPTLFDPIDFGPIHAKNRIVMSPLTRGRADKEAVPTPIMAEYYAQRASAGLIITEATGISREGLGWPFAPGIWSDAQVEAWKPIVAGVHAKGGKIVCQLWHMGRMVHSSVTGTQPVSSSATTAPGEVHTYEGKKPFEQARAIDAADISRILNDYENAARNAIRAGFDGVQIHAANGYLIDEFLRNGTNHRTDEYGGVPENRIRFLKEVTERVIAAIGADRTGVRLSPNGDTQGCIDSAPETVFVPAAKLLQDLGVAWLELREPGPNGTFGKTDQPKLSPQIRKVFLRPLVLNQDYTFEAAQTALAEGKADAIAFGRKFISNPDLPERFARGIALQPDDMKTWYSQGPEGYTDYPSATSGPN

Gox0502 [4] = biological target: T6, Gox0502; experiment: Enzyme activity assay (rate of NAD(P)H decrease at 340 nm), Gox0502; assay type: biochemical; parameters: Strep-tag II (N); made in house; host or cells: E. coli BL21 or E. coli DH5α (pASK-IBA5); details: Tab. 7, Gox0502; cofactor NADPH; 10 mM substrate, pH 7.0, 30 °C
Method: as §1, §2, §3

| SMILES | reverse reduction reaction (result in words) (Gox1122) | Specific Activity (Gox0313) [U/mg] | Specific Activity (Gox1615) [U/mg] | activities (Gox2107 [1]; Gox2107, reduction with NADPH) [µmol/mg/min] | Specific Activity (Gox2107 [1]; Tab. 7, Gox2107, cofactor NADPH, 10 mM substrate, pH 7.0, 30 °C) [U/mg] | Specific Activities (Gox2684) [U/mg] | Vmax (Gox2107 [2]) [U/mg protein] | Vmax (Gox0502 [3]) [U/mg protein] | Specific Activity (Gox0502 [4]) [U/mg] |
| --- | --- | --- | --- | --- | --- | --- | --- | --- | --- |
| CC(=O)O [acetic acid] | No reverse reduction reaction |  |  |  |  |  |  |  |  |
| C=CC(C)=O [3-buten-2-one] |  | 1.9 | 0.7 | 119 | 120 | 8.8 | 119 | 21 | 21 |
